Measurements reported in US20230026696A1, “TRPV4 RECEPTOR LIGANDS” (UNIVERSITY OF UTAH RESEARCH FOUNDATION, priority 2019, published 2023).

How the values were obtained:
[1] = system: intraocular pressure (IOP); assay: In vivo IOP assay in dog model of ocular hypertension (ADAMTS10 Beagles)
Method: Homozygous Beagels with autosomal recessive missense mutation in the ADAMTS10 gene develop significant IOP elevations due to decreased outflow facility for aqueous humor, resulting in open angle glaucoma that manifests as optic nerve head cupping and optic neuropathy.
8 drops of Compound 52 (200 mM in hydroxypropyl methylcellulose solution, stock dissolved in DMSO) were administered to the Beagels at 7 AM for 1.5 hours. Control eyes received the vehicle (hydroxypropyl methylcellulose eyedrop with proper dilution of DMSO). IOP was measured by tonometry at 9:00 AM (6 readings per event, averaged) in dogs under topical anesthesia (N=5 OAG, N=5 non-symptomatic dogs). General ophthalmic examinations were performed by slit lamp biomicroscopy (Kowa SL-17 Portable Slit Lamp; Kowa Company, Ltd.) and indirect ophthalmoscopy (Keeler All Pupil II headset; Keeler Instruments; Pan Retinal 2.2D condensing lens; Volk Optical) to detect potential treatment-related adverse effects.

human TRPV4 = target: T1, human TRPV4 (Homo sapiens, UniProt Q9HBA0); assay: Fluorometric cell-based Ca2+ flux assay, HEK-293 cells stably overexpressing human TRPV4; details: for IC50: HEK-293 stably overexpressing human TRPV4, agonist GSK1016790A 30 nM
T1 construct: expressed in transfected cells
Outline: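 HEK-293 cells stably overexpressing human TRPV4, Fluo 4-loaded, pre-incubated 30 min at 37° C with compound, then stimulated with 30 nM GSK1016790A (final). Max ΔF/s over 1 min, media-corrected, expressed relative to no-antagonist control; IC50 from ≥8 concentrations, ≥3 replicates.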

T1 sequence (Q9HBA0 whole entry): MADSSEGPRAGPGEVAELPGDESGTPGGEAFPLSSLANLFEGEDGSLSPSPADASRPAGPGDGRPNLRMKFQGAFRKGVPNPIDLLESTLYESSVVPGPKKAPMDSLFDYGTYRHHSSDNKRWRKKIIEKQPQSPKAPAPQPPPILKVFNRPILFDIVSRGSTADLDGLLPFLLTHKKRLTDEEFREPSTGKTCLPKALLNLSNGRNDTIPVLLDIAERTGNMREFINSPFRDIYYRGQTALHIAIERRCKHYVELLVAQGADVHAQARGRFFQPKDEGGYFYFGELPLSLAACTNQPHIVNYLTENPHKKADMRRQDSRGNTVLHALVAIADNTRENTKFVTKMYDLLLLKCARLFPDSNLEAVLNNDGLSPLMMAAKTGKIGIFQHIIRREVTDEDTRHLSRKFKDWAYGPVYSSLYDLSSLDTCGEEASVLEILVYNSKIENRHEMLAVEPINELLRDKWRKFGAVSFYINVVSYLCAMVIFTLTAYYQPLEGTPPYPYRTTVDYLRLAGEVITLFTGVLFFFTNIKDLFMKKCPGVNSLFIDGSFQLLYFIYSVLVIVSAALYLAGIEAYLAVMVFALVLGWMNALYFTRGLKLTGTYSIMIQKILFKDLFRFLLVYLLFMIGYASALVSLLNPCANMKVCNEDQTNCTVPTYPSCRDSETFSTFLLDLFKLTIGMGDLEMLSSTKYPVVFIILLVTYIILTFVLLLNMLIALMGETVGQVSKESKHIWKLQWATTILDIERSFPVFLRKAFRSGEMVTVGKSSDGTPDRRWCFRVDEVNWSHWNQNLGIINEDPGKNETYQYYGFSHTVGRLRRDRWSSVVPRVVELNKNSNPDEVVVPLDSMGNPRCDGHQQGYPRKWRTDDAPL

Row | selectivity for TRPV4 versus TRPA1, TRPM8, TRPV3 and TRPV1 (human TRPV4; comparison of IC50 values) | Compound | average IOP after topical application ([1]; ocular hypertensive dogs, mean baseline IOP 45.5 mm Hg, 8 drops, 200 mM in hydroxypropyl methylcellulose) | tolerability in dogs ([1]; topical, N=10) | signs of ocular discomfort or conjunctival hyperemia ([1]; topical, N=10, slit lamp and ophthalmoscopy) | IC50 (human TRPV4)
1 | – | Cl.N#Cc1ccc(OCC2(N)CN(S(=O)(=O)c3ccc(Cl)cc3Cl)C2)cc1F [Compound 52, 4-((3-Amino-1-((2,4-dichlorophenyl)sulfonyl)azetidin-3-yl)methoxy)-2-fluorobenzonitrile hydrochloride salt] | 36.6 mm Hg | well-tolerated | no observable signs of ocular discomfort or conjunctival hyperemia | 0.024 to 0.066 µM
2 | substantially more selective for TRPV4 | N#Cc1ccc(OCC2(CO)CN(S(=O)(=O)c3ccc(Cl)cc3Cl)C2)cc1F [Compound 11, 4-((1-((2,4-Dichlorophenyl)sulfonyl)-3-(hydroxymethyl)azetidin-3-yl)methoxy)-2-fluorobenzonitrile] | – | – | – | 0.052 to 0.061 µM
